Experimental data as given in US9963514B2, “BAG3 receptor binding molecules for use as a medicament” (BIOUNIVERSA S.R.L., priority 2013, dated 2018).

Key:
[1] = test system: J774 A1 cells; experiment: Binding of FITC-BAG3 to J774 macrophages by flow cytometry, with competition by BAG3-specific peptides or anti-BAG3 F(ab')2; design: species or system murine
Method: J774 A1 cells (1×10^6 cells/ml) were incubated with different concentrations of BAG3 FITC protein ([…]). FITC-BSA (70 nM) was used as a negative control (grey). Fluorescence was analyzed by flow cytometry. (FIG. 10).
In particular, J774 cells were incubated with 14 nM FITC-BAG3 protein and with 625 nM BAG3-specific peptides (peptide 1, peptide 2, peptide 3, peptide 4, or a scrambled peptide) or with 420 nM of anti-BAG3 F(ab′) antibodies (mouse monoclonal antibodies AC1, AC2 and the polyclonal antibody produced in rabbit TOS2). Fragments F(ab′) 2 of rabbit or mouse IgG were used as a negative control.

[2] = test system: pancreatic adenocarcinoma cells (PANC-1); experiment: Confocal fluorescence microscopy of rBAG3-FITC binding to PANC-1 cells; conditions: 0.1% NaN3, 1 h
Method: (§1) (FIG. 9). Confocal fluorescence microscopy analysis was performed to measure the binding of rBAG3-FITC to HCM, J774 A1, and PANC-1 cells. The BAG3 recombinant protein and the BSA (bovine serum albumin) (SIGMA) were conjugated to FITC using the FluoroTag Conjugation FITC kit (SIGMA) following the manufacturer's instructions. Equal amounts of rBAG3-FITC and BSA-FITC were added to the three cell lines in the presence of 0.1% NaN3 for 1 h. β-integrin protein was used as a positive control. Fluorescence was analyzed using a Zeiss LSM confocal microscope.

[3] = test system: heart muscle cells (HCM); experiment: Confocal fluorescence microscopy of rBAG3-FITC binding to HCM cells; conditions: 0.1% NaN3, 1 h
Method: as §1

[4] = test system: J774 A1 cells; experiment: Confocal fluorescence microscopy of rBAG3-FITC binding to J774 cells; design: species or system murine; conditions: 1 h
Method: The binding of the BAG3 protein to the cell surface of the J774 cells was then confirmed through conjugation of the recombinant protein with a fluorophore (FIG. 8). The BAG3 recombinant protein was then conjugated to FITC using the FluoroTag Conjugation FITC kit (SIGMA). Equal amounts of BSA-FITC (negative control) and rBAG3-FITC were added to the culture medium for 1 h. The cells were then fixed with a 3.7% formaldehyde solution and analyzed with a Zeiss LSM confocal microscope.
as §1, with “Confocal” for “(FIG. 9). Confocal”

[5] = test system: J774 murine monocyte cell line; experiment: Macrophage activation: nitrite production with Griess reagent (Example 8); assay type: cell-based; conditions: 24 h
Method: J774 cells were plated at a 60% confluence and incubated for 24 h with the BAG3 recombinant protein at concentrations of 10, 30, or 100 ng/ml. The nitrites production was verified in the culture medium using Griess reagent (1% sulphanilamide, 0.1% naphthyl ethylenediamine, 5% phosphoric acid) and measured using a Beckman DU-62 spectrophotometer at […].
The BAG3 recombinant protein was then used in macrophage activation assays in order to determine a possible role of the protein released in the serum in relation to the blood cells. To this end, the J774 murine monocyte cell line was treated with the BAG3 recombinant protein at different concentrations, using a pro-inflammatory agent, such as lipopolysaccharide (LPS), as a positive control. The activation of monocytes was measured by assay of nitrites. (FIG. 7).

[6] = test system: cyclo-oxygenase-2 (COX-2); experiment: Effect of rBAG3 on COX-2 expression in J774 cells (Western blot); assay type: cell-based, murine; conditions: 20 hours
Method: (§2) In order to explore the functional consequences of the binding of BAG3 to macrophages, we tested the effect of rBAG3 expression on inducible nitric oxide synthase (iNOS) and cyclo-oxygenase-2 (COX-2) in the cells. J774 cells at 80% confluence were incubated with a control medium, BSA, LPS or rBAG3 for 20 hours. Polymyxin was added to verify the presence of non-specific effects of endotoxins still present after the purification of the BAG3 recombinant protein. COX-2 and iNOS were analyzed in cell lysates by Western blotting.

[7] = test system: inducible nitric oxide synthase (iNOS); experiment: Effect of rBAG3 on iNOS expression in J774 cells (Western blot); assay type: cell-based, murine; conditions: 20 hours
Method: as §2

[8] = test system: J774 A1 macrophages; experiment: IL-6 release by J774 A1 macrophages incubated with rBAG3 (ELISA, Example 13); assay type: cell-based, murine; conditions: J774A.1 cells, 5 hours
Method: J774A.1 cells at 80% confluence were incubated with a control medium, BSA, LPS, or BAG3 for 5 hours. IL-6 was measured in the cell culture medium using an ELISA test. IL-6 concentration was assessed by comparing the sample's ODs with that of a standard IL-6 recombinant curve (FIG. 13).

[9] = test system: J774 A1 macrophages; experiment: Nitrite release by J774 A1 macrophages incubated with rBAG3 (Example 12); assay type: cell-based, murine; conditions: J774 A1 cells, 24 hours
Method: J774 A1 cells at 80% confluence were incubated with a control medium, BSA, LPS, or rBAG3 for 24 hours. […] supernatant from each sample was incubated with […] Griess reagent; the optical density at 550 nm (OD550) was measured with a Beckman DU62 spectrophotometer. The nitrite concentration was assessed by comparing the sample's OD at 550 nm with that of a standard sodium nitrite curve (FIG. 12).

For “FITC-BSA: bovine serum albumin conjugated to FITC, negative control [reference compound]”, the “FITC-BSA positive cell % (±D.S.)” value ([1]; J774 cells, FITC-BSA negative control, flow cytometry) was 4.04 (±0.06) %.
With “FITC-rBAG3: BAG3 recombinant protein conjugated to FITC using the FluoroTag Conjugation FITC kit” the “binding to pancreatic adenocarcinoma cells (PANC-1)” value [2] was “not”, the “binding to heart muscle cells (HCM)” value [3] was “not” and the “FITC-rBAG3 positive cell % (±D.S.)” value ([1]; J774 cells, FITC-rBAG3 alone, flow cytometry) was 15.7 (±0.45) %. For the same substance, the “(FITC-rBAG3)-(FITC-BSA) positive cell % (±D.S.)” value ([1]; J774 cells, FITC-rBAG3 minus FITC-BSA) was 11.06 (±0.45) %, the “binding of FITC-BAG3 to macrophages of the J774 cell line” value ([1]; flow cytometry, 7, 14 and 70 nm FITC-BAG3) was “binds the macrophages of the J774 cell line” and the “binding to the cell surface of J774 macrophages” value ([4]; listed as BAG3 recombinant protein bound to fluorescein isothiocyanate (FITC)) was “binds the surface of macrophages”. For the same substance, the “binding to the cell surface of J774 macrophages” value ([4]; listed as rBAG3-FITC) was “confirmed”.
With “rBAG3: BAG3 recombinant protein with a His tag” the “increase of nitrite production compared to the control” value ([5]; J774 cells, 100 ng/ml, p<0.001) was 200%, the “nitrite production, dependence on dose” value ([5]; J774 cells, 10, 30 or 100 ng/ml) was “dose-dependent” and the COX-2 enzyme levels [6] was “increased”. The iNOS enzyme levels [7] was “increased”, the “release of interleukin-6 (IL-6)” value [8] was “induces the release of interleukin-6 (IL-6)” and the release of nitrite [9] was “induces the release of nitrite”.
